The source made the active and inactive calls. No cut-off for these calls is given here.
Columns and labels:
Type in all cases: functional, cell-based
MOLT-3 [1] = test: Induction of apoptosis in human MOLT3 cells assessed as […] hydrolysis of chromatin at 10 uM after 24 hrs by agarose gel electrophoretic analysis
MOLT-3 [2] = test: Cytotoxicity against human MOLT3 cells assessed as reduction in cell number at 10 uM after 24 hrs by inverted phase-contrast microscopic analysis
MOLT-3 [3] = test: Cytotoxicity against human MOLT3 cells after 72 hrs by MTT assay; details: for IC50: MOLT-3, 72 h
HL-60 [4] = test: Cytotoxicity against human HL60 cells assessed as reduction in cell number at 10 uM after 24 hrs by inverted phase-contrast microscopic analysis
MOLT-3 [5] = test: Induction of apoptosis in human MOLT3 cells assessed as increase in chromatin condensation at 10 uM after 24 hrs by Hoechst staining-based flow cytometric analysis
HL-60 [6] = test: Induction of apoptosis in human HL60 cells assessed as increase in chromatin condensation at 10 uM after 24 hrs by Hoechst staining-based flow cytometric analysis
MCF7 [7] = test: Cytotoxicity against human MCF7 cells assessed as morphological changes at 10 uM after 24 hrs by inverted phase-contrast microscopic analysis
U-937 [8] = test: Cytotoxicity against human U937 cells after 72 hrs by MTT assay; details: for IC50: U-937, 72 h
HL-60 [9] = test: Induction of apoptosis in human HL60 cells assessed as […] hydrolysis of chromatin at 10 uM after 24 hrs by agarose gel electrophoretic analysis
U-937 [10] = test: Induction of apoptosis in human U937 cells assessed as […] hydrolysis of chromatin at 10 uM after 24 hrs by agarose gel electrophoretic analysis
MCF7 [11] = test: Cytotoxicity against human MCF7 cells after 72 hrs by MTT assay; details: for IC50: MCF7, 72 h
HL-60 [12] = test: Cytotoxicity against human HL60 cells after 72 hrs by MTT assay; details: for IC50: HL-60, 72 h
U-937 [13] = test: Induction of apoptosis in human U937 cells assessed as increase in chromatin condensation at 10 uM after 24 hrs by Hoechst staining-based flow cytometric analysis
U-937 [14] = test: Cytotoxicity against human U937 cells assessed as morphological changes at 10 uM after 24 hrs by inverted phase-contrast microscopic analysis
MOLT-3 [15] = test: Cytotoxicity against human MOLT3 cells assessed as morphological changes at 10 uM after 24 hrs by inverted phase-contrast microscopic analysis
HL-60 [16] = test: Cytotoxicity against human HL60 cells assessed as morphological changes at 10 uM after 24 hrs by inverted phase-contrast microscopic analysis
U-937 [17] = test: Cytotoxicity against human U937 cells assessed as reduction in cell number at 10 uM after 24 hrs by inverted phase-contrast microscopic analysis

SMILES | Activity (MOLT-3 [1]) | Activity (MOLT-3 [2]) | Activity (MOLT-3 [3]) | IC50 (MOLT-3 [3]) | Activity (HL-60 [4]) | Activity (MOLT-3 [5]) | Activity (HL-60 [6]) | Activity (MCF7 [7]) | Activity (U-937 [8]) | IC50 (U-937 [8]) | Activity (HL-60 [9]) | Activity (U-937 [10]) | Activity (MCF7 [11]) | IC50 (MCF7 [11]) | Activity (HL-60 [12]) | IC50 (HL-60 [12]) | Activity (U-937 [13]) | Activity (U-937 [14]) | Activity (MOLT-3 [15]) | Activity (HL-60 [16]) | further results
CC(C)[C@@H]1CC[C@@H](C)C[C@H]1O[C@@H]1O[C@H](CO[C@@H]2O[C@H](COC(=O)c3ccc(Br)cc3)[C@@H](OC(=O)c3ccc(Br)cc3)[C@H](O)[C@H]2O)[C@@H](O)[C@H](O)[C@H]1O | Active | Active | Dose-dependent effect | 11.4 µM | Active | Active | Active | Active | Dose-dependent effect | 9.2 µM | Active | Active | Dose-dependent effect | 12.9 µM | Dose-dependent effect | 7 µM | Active | Active | Active | Active | Activity (U-937 [17]): Active
CC(C)[C@@H]1CC[C@@H](C)C[C@H]1OC1O[C@H](CO[C@@H]2O[C@H](COC(=O)c3ccc(Br)cc3)[C@@H](OC(=O)c3ccc(Br)cc3)[C@H](O)[C@H]2O)[C@@H](O)[C@H](O)[C@H]1O (single isomer, unassigned) | Active | Active | Dose-dependent effect | 10.6 µM | Active | Active | Active | Active | Dose-dependent effect | 5.8 µM | Active | Active | Dose-dependent effect | 12.1 µM | Dose-dependent effect | 7 µM | Active | Active | Active | Active | Activity (U-937 [17]): Active
